# Results published in ChEMBL document CHEMBL4813941, “Secondary Metabolites from the Leather Coral-Derived Fungal Strain Xylaria sp. FM1005 and Their Glycoprotein IIb/IIIa Inhibitory Activity” (J Nat Prod, 2021).
# “And” between values parts separate entries of the source, which are not always exact repeats. Identical values can stand only once. The source made the active and inactive calls. No cut-off for these calls is given here.
# Molecular target: T1, Integrin subunit alpha 2b/beta-3 (Rattus norvegicus) (UniProt D3ZAC0+Q8R2H2)
# Assay: Inhibition of fibrinogen binding to rat platelet integrin alpha2b beta3 at 1 ug/ml by ELISA based solid phase binding assay
# Assay type: cell-based
# Conditions: dose 1.0 µg/ml
row,Structure (SMILES),inhibition
1,CCCCCC(=O)N[C@@H](Cc1ccc(OCC#CCO)cc1)C(=O)O,inactive
2,C/C(=C/COc1ccc(CC(=O)O)cc1)C(=O)O,inactive
3,CC#CCOc1ccc(C[C@H](NC(=O)CCCC)C(=O)O)cc1,inactive
4,CC#CCOc1ccc(C[C@H](NC(=O)CCC)C(=O)O)cc1,inactive

# Molecular target: T1, Integrin subunit alpha 2b/beta-3 (Rattus norvegicus)
# Assay: (§1) Inhibition of fibrinogen binding to rat platelet integrin alpha2b beta3 by ELISA based solid phase binding assay
# Assay type: cell-based
# Conditions: not given
row,Structure (SMILES),inhibition
1,CC#CCOc1ccc(C[C@H](NC(=O)CCCCC)C(=O)O)cc1,Dose-Dependent Effect
2,CC#CCOc1ccc(C[C@H](NC(=O)CCCCC)C(=O)OC)cc1,Dose-Dependent Effect

# Molecular target: T2, Integrin subunit alpha 2b/beta-3 (Rattus norvegicus, UniProt D3ZAC0+Q8R2H2)
# T2 sequence (D3ZAC0 whole entry): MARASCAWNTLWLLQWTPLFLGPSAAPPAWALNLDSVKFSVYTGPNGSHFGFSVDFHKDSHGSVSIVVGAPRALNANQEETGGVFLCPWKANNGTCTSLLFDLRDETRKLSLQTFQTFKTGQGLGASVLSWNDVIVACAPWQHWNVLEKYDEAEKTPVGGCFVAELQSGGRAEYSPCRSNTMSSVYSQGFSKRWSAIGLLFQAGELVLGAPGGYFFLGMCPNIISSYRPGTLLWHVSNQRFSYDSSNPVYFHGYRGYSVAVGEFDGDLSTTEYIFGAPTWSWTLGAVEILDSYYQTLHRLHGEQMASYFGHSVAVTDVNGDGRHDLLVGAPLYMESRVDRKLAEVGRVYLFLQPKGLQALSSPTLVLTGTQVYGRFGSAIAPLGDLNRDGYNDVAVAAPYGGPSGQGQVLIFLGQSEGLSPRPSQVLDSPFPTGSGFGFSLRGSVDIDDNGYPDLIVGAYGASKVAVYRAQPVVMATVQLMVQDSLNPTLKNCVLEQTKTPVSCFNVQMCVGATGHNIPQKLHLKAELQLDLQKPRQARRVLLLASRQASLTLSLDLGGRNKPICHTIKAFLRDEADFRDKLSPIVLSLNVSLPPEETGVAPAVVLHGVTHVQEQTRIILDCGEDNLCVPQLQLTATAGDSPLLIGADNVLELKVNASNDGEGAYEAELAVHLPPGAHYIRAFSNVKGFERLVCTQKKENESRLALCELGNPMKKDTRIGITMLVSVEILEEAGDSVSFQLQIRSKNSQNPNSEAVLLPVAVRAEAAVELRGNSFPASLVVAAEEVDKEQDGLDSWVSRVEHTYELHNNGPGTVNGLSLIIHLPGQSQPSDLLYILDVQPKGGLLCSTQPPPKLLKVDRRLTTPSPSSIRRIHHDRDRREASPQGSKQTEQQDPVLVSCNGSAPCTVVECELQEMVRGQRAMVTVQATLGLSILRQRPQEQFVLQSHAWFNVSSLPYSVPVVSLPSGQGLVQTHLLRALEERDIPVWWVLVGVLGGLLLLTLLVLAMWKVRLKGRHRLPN
# T2 sequence (Q8R2H2 whole entry): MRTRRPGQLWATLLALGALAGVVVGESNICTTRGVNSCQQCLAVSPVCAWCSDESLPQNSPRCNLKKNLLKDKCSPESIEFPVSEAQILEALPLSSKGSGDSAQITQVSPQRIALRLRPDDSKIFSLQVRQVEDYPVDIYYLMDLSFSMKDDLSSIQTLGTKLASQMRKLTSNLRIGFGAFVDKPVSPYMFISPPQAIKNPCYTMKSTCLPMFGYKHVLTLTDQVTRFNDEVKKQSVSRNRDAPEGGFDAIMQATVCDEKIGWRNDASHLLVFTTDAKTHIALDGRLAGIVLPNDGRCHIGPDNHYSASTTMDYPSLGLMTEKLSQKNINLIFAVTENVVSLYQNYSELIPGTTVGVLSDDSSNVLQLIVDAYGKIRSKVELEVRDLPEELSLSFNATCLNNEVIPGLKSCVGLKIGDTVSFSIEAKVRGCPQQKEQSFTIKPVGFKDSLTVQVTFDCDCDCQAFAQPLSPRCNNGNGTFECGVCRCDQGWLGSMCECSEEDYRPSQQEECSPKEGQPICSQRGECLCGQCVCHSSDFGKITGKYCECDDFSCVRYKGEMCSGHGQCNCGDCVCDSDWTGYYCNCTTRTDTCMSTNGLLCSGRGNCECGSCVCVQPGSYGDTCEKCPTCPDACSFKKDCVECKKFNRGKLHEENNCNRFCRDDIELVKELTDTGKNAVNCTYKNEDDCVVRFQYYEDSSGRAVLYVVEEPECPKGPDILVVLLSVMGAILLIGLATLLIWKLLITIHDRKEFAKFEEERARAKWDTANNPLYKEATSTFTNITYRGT
# Assay: as §1
# Assay type: cell-based
# Conditions: not given
row,Structure (SMILES),IC50
1,CCCCS(=O)(=O)N[C@@H](Cc1ccc(OCCCCC2CCNCC2)cc1)C(=O)O [TIROFIBAN],130 nM and 136 nM
2,CC#CCOc1ccc(C[C@H](NC(=O)CCCCC)C(=O)O)cc1,610 nM and 603 nM
3,CC#CCOc1ccc(C[C@H](NC(=O)CCCCC)C(=O)OC)cc1,890 nM and 897 nM

# Tested on: Bacillus subtilis
# Assay: Antibacterial activity against Bacillus subtilis at 80 ug/ml incubated for 24 hrs by resazurin dye based broth microdilution method
# Assay type: functional, organism-based
# Conditions: dose 80.0 µg/ml
row,Structure (SMILES),Activity
1,CCCCCC(=O)N[C@@H](Cc1ccc(OCC#CCO)cc1)C(=O)O,inactive
2,C/C(=C/COc1ccc(CC(=O)O)cc1)C(=O)O,inactive
3,CC#CCOc1ccc(C[C@H](NC(=O)CCCCC)C(=O)O)cc1,inactive
4,CC#CCOc1ccc(C[C@H](NC(=O)CCCC)C(=O)O)cc1,inactive
5,CC#CCOc1ccc(C[C@H](NC(=O)CCC)C(=O)O)cc1,inactive
6,CC#CCOc1ccc(C[C@H](NC(=O)CCCCC)C(=O)OC)cc1,inactive

# Tested on: Plasma
# Assay: Antiplatelet activity in Sprague-Dawley rat platelet-rich plasma assessed as inhibition of ADP-induced platelet aggregation at 1 ug/ml preincubated for 5 mins followed by ADP addition and measured after 5 mins by light microscopic analysis
# Assay type: functional, cell-free
# Conditions: dose 1.0 µg/ml, time 10.0 min
row,Structure (SMILES),Activity
1,CCCCCC(=O)N[C@@H](Cc1ccc(OCC#CCO)cc1)C(=O)O,inactive
2,C/C(=C/COc1ccc(CC(=O)O)cc1)C(=O)O,inactive
3,CC#CCOc1ccc(C[C@H](NC(=O)CCCCC)C(=O)O)cc1,Active
4,CC#CCOc1ccc(C[C@H](NC(=O)CCCC)C(=O)O)cc1,inactive
5,CC#CCOc1ccc(C[C@H](NC(=O)CCC)C(=O)O)cc1,inactive
6,CC#CCOc1ccc(C[C@H](NC(=O)CCCCC)C(=O)OC)cc1,Active

# Tested on: Staphylococcus aureus
# Assay: Antibacterial activity against Staphylococcus aureus at 80 ug/ml incubated for 24 hrs by resazurin dye based broth microdilution method
# Assay type: functional, organism-based
# Conditions: dose 80.0 µg/ml
row,Structure (SMILES),Activity
1,CCCCCC(=O)N[C@@H](Cc1ccc(OCC#CCO)cc1)C(=O)O,inactive
2,C/C(=C/COc1ccc(CC(=O)O)cc1)C(=O)O,inactive
3,CC#CCOc1ccc(C[C@H](NC(=O)CCCCC)C(=O)O)cc1,inactive
4,CC#CCOc1ccc(C[C@H](NC(=O)CCCC)C(=O)O)cc1,inactive
5,CC#CCOc1ccc(C[C@H](NC(=O)CCC)C(=O)O)cc1,inactive
6,CC#CCOc1ccc(C[C@H](NC(=O)CCCCC)C(=O)OC)cc1,inactive

# Tested on: HEK293
# Assay: Antiproliferative activity against human HEK293 cells at 40 uM by SRB assay
# Assay type: cell-based
# Conditions: hek293, 40 µM
row,Structure (SMILES),Activity
1,CCCCCC(=O)N[C@@H](Cc1ccc(OCC#CCO)cc1)C(=O)O,Non-Toxic
2,C/C(=C/COc1ccc(CC(=O)O)cc1)C(=O)O,Non-Toxic
3,CC#CCOc1ccc(C[C@H](NC(=O)CCCCC)C(=O)O)cc1,Non-Toxic
4,CC#CCOc1ccc(C[C@H](NC(=O)CCCC)C(=O)O)cc1,Non-Toxic
5,CC#CCOc1ccc(C[C@H](NC(=O)CCC)C(=O)O)cc1,Non-Toxic
6,CC#CCOc1ccc(C[C@H](NC(=O)CCCCC)C(=O)OC)cc1,Non-Toxic

# Tested on: Escherichia coli
# Assay: Antibacterial activity against Escherichia coli at 80 ug/ml incubated for 24 hrs by resazurin dye based broth microdilution method
# Assay type: functional, organism-based
# Conditions: dose 80.0 µg/ml
row,Structure (SMILES),Activity
1,CCCCCC(=O)N[C@@H](Cc1ccc(OCC#CCO)cc1)C(=O)O,inactive
2,C/C(=C/COc1ccc(CC(=O)O)cc1)C(=O)O,inactive
3,CC#CCOc1ccc(C[C@H](NC(=O)CCCCC)C(=O)O)cc1,inactive
4,CC#CCOc1ccc(C[C@H](NC(=O)CCCC)C(=O)O)cc1,inactive
5,CC#CCOc1ccc(C[C@H](NC(=O)CCC)C(=O)O)cc1,inactive
6,CC#CCOc1ccc(C[C@H](NC(=O)CCCCC)C(=O)OC)cc1,inactive

# Tested on: A2780
# Assay: Antiproliferative activity against human A2780 cells at 40 uM incubated for 72 hrs by CyQuant assay
# Assay type: cell-based
# Conditions: a2780, 72 h
row,Structure (SMILES),Activity
1,CCCCCC(=O)N[C@@H](Cc1ccc(OCC#CCO)cc1)C(=O)O,Non-Toxic
2,C/C(=C/COc1ccc(CC(=O)O)cc1)C(=O)O,Non-Toxic
3,CC#CCOc1ccc(C[C@H](NC(=O)CCCCC)C(=O)O)cc1,Non-Toxic
4,CC#CCOc1ccc(C[C@H](NC(=O)CCCC)C(=O)O)cc1,Non-Toxic
5,CC#CCOc1ccc(C[C@H](NC(=O)CCC)C(=O)O)cc1,Non-Toxic
6,CC#CCOc1ccc(C[C@H](NC(=O)CCCCC)C(=O)OC)cc1,Non-Toxic

# Tested on: Pseudomonas aeruginosa
# Assay: Antibacterial activity against Pseudomonas aeruginosa at 80 ug/ml incubated for 24 hrs by resazurin dye based broth microdilution method
# Assay type: functional, organism-based
# Conditions: dose 80.0 µg/ml
row,Structure (SMILES),Activity
1,CCCCCC(=O)N[C@@H](Cc1ccc(OCC#CCO)cc1)C(=O)O,inactive
2,C/C(=C/COc1ccc(CC(=O)O)cc1)C(=O)O,inactive
3,CC#CCOc1ccc(C[C@H](NC(=O)CCCCC)C(=O)O)cc1,inactive
4,CC#CCOc1ccc(C[C@H](NC(=O)CCCC)C(=O)O)cc1,inactive
5,CC#CCOc1ccc(C[C@H](NC(=O)CCC)C(=O)O)cc1,inactive
6,CC#CCOc1ccc(C[C@H](NC(=O)CCCCC)C(=O)OC)cc1,inactive

# Tested on: Plasma
# Assay: Antiplatelet activity in Sprague-Dawley rat platelet-rich plasma assessed as inhibition of CaCl2-induced platelet aggregation at 1 ug/ml preincubated for 5 mins followed by CaCl2 addition and measured after 5 mins by light microscopic analysis
# Assay type: functional, cell-free
# Conditions: dose 1.0 µg/ml, time 10.0 min
row,Structure (SMILES),Activity
1,CCCCCC(=O)N[C@@H](Cc1ccc(OCC#CCO)cc1)C(=O)O,inactive
2,C/C(=C/COc1ccc(CC(=O)O)cc1)C(=O)O,inactive
3,CC#CCOc1ccc(C[C@H](NC(=O)CCCCC)C(=O)O)cc1,Active
4,CC#CCOc1ccc(C[C@H](NC(=O)CCCC)C(=O)O)cc1,inactive
5,CC#CCOc1ccc(C[C@H](NC(=O)CCC)C(=O)O)cc1,inactive
6,CC#CCOc1ccc(C[C@H](NC(=O)CCCCC)C(=O)OC)cc1,Active
